Read-outs that look alike come from different tables or passages of the source.
Experiments:
H1975 = assay: CCK-8 proliferation, NCI-H1975 (H1975); assay type: cell-based, Human; details: Homo sapiens, read-out: Inhibitory activity (IC50) on tumor cell proliferation, H1975
In short: (§1)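 CCK-8 viability readout; IC50 from growth-inhibition curve fitting. Cells plated, dosed 24h later with a 10-point series, top 10µM, 5-fold steps. Culture at 37°C, 5% CO2.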

MCF7 = assay: CCK-8 proliferation, MCF7 (MCF-7); assay type: cell-based; details: Homo sapiens, MCF7; CCK-8; read-out: Inhibitory activity (IC50) on tumor cell proliferation, MCF7
In short: as §1

MV-4-11 = assay: CCK-8 proliferation, MV-4-11; assay type: cell-based, Human; details: Homo sapiens, MV4-11; CCK-8; 72 or 96 hours; read-out: Inhibitory activity (IC50) on tumor cell proliferation, MV-4-11
In short: as §1

SR = assay: CCK-8 proliferation, SR; assay type: cell-based, Human; details: Homo sapiens, SR; CCK-8; 72 hours; read-out: Inhibitory activity (IC50) on tumor cell proliferation, SR
In short: as §1

22RV1 = assay: CCK-8 proliferation, 22RV1; assay type: cell-based; details: Homo sapiens, 96 hours, read-out: Inhibitory activity (IC50) on tumor cell proliferation, 22RV1
Description: (§2) The tumor cells used herein were cultured in a cell culture medium listed in table A1 at 37°C in an incubator with 5% CO2. Prior to experimentation, all cell lines used were correctly identified by STR profiling, and tested negative for mycoplasma contamination using a mycoplasma detection kit through routine screenings. Table A1. Tumor cells and cell culture medium used in the present disclosure
(§3) IC50 values of the compounds of the present disclosure (including the compounds in Table 1, and compounds of examples) were measured using the Meilun Cell Counting Kit-8 kit from Dalian Meilun Biotech Co., Ltd. Assay details are as follows: tumor cells were seeded in a 96-well plate at a density listed in Table A2. After 24h, 100 µL of the inoculated cells were treated with 0.5µL of the compounds of the present disclosure (including the compounds in Tables 1 and 2, and compounds of examples) at 10 different successively decreasing concentrations (starting at the highest concentration of 10µM; 5-fold serial dilutions). After the cells were treated with the compounds of the present disclosure for a period of time, the cell viability detection reagent was added to the culture medium for cell viability assessment according to the instructions provided with the CCK-8 kit. […] The growth inhibition of the compounds of the present disclosure on cells was plotted by Prism Graphpad software, and the IC50 values of the compounds of the present disclosure were calculated therefrom. […] Seeding protocol and treatment time for tumor cells

CCRF-CEM = assay: CCK-8 proliferation, CCRF-CEM; assay type: cell-based, Human; details: Homo sapiens, CCRF-CEM; CCK-8; 96 hours; read-out: Inhibitory activity (IC50) on tumor cell proliferation, CCRF-CEM
In short: as §1

Kasumi-1 = assay: CCK-8 proliferation, Kasumi-1; assay type: cell-based, Human; details: Homo sapiens, Kasumi 1, 72 hours, read-out: Inhibitory activity (IC50) on tumor cell proliferation, Kasumi-1
Description: as §2, §3

MM.1S = assay: CCK-8 proliferation, MM.1S; assay type: cell-based; details: Homo sapiens, MM1.S; CCK-8; 72 hours; read-out: Inhibitory activity (IC50) on tumor cell proliferation, MM1S
In short: as §1

CDK4 = molecular target: T1, CDK4 (Homo sapiens, UniProt P11802); assay: Western blot degradation of CDK4 (MDA-MB-231 Cell); assay type: cell-based; details: Table D3
T1 construct: evaluate the effects of the compounds of the present disclosure on the expression of target proteins in cells; endogenous in cells; host or cells: MDA-MB-231
In short: (§4)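 Degradation is assessed by immunoblotting lysates of treated cells. Target bands are quantified by grayscale and normalised to an internal control, so degradation rate equals 100% minus % remaining.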

CDK6 = molecular target: T2, CDK6 (Homo sapiens, UniProt Q00534); assay: Western blot degradation of CDK6 (MDA-MB-231 Cell); assay type: cell-based; details: Table D3
T2 construct: evaluate the effects of the compounds of the present disclosure on the expression of target proteins in cells; endogenous in cells; host or cells: MDA-MB-231
In short: as §4

T1 sequence (P11802 whole entry): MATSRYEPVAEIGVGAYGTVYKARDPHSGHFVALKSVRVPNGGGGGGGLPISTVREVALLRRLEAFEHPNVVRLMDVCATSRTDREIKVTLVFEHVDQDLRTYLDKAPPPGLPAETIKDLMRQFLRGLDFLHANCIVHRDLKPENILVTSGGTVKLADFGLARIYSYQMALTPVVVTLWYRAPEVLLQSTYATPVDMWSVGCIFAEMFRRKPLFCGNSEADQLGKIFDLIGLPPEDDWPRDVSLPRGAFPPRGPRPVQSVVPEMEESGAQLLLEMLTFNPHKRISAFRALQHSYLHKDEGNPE
T2 sequence (Q00534 whole entry): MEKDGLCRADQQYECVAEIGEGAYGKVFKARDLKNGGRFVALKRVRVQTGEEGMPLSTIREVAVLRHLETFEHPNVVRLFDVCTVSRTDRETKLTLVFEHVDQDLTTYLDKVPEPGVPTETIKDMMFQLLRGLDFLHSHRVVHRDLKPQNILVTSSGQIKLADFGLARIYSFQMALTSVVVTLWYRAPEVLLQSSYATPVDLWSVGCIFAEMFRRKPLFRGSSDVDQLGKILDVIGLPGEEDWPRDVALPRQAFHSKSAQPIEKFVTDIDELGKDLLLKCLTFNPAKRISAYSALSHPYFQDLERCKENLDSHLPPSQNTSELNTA

IC50 (H1975; NCI-H1975, CCK-8, 96 hours) [µM]	IC50 (MCF7) [µM]	IC50 (MV-4-11) [µM]	IC50 (22RV1) [µM]	IC50 (CCRF-CEM) [µM]	IC50 (MM.1S) [µM]	Structure (SMILES)	IC50 (SR) [µM]	IC50 (Kasumi-1) [µM]	Degradation of substrate protein CDK4 (substrate protein remaining %) (CDK4)	Degradation of substrate protein CDK6 (substrate protein remaining %) (CDK6)	IC50 (H1975; NCI-H1975, 96 h) [µM]
0.1 to 0.5	0.01 to 0.05	0.01 to 0.05	0.01 to 0.05	0.05 to 0.1	0.1 to 0.5	Cc1nc2c(F)cc(-c3nc(Nc4ccc(N5CCC(N6CCN(Cc7ccc(N8CCC(=O)NC8=O)nc7)CC6)CC5)cn4)ncc3F)cc2n1C(C)C [GT-06742, 1-(5-((4-(1-(6-((5-fluoro-4-(4-fluoro-1-isopropyl-2-methyl-1H-benzo[d]imidazol-6-yl)pyrimidin-2-yl)amino)pyridin-3-yl)piperidin-4-yl)piperazin-1-yl)methyl)pyridin-2-yl)dihydropyrimidine-2,4(1H,3H)-dione]	0.01 to 0.05	0.1 to 0.5	–	–	–
–	0.1 to 0.5	0.01 to 0.05	0.05 to 0.1	0.1 to 0.5	–	Cc1nc2c(F)cc(-c3nc(Nc4ccc(CN5CCN(Cc6ccc(N7CCC(=O)NC7=O)cn6)CC5)cn4)ncc3F)cc2n1C(C)C [GT-06667, 1-(6-((4-((6-((5-fluoro-4-(4-fluoro-1-isopropyl-2-methyl-1H-benzo[d]imidazol-6-yl)pyrimidin-2-yl)amino)pyridin-3-yl)methyl)piperazin-1-yl)methyl)pyridin-3-yl)dihydropyrimidine-2,4(1H,3H)-dione]	0.1 to 0.5	0.1 to 0.5	A (A is defined as 0% ≤ substrate protein remaining % ≤ 80%)	A (A is defined as 0% ≤ substrate protein remaining % ≤ 80%)	–
0.1 to 0.5	0.05 to 0.1	0.01 to 0.05	0.01 to 0.05	0.1 to 0.5	0.1 to 0.5	Cc1nc2c(F)cc(-c3nc(Nc4ccc(N5CCC(N(C)Cc6ccc(N7CCC(=O)NC7=O)nc6)CC5)cn4)ncc3F)cc2n1C(C)C [GT-06841, 1-(5-(((1-(6-((5-fluoro-4-(4-fluoro-1-isopropyl-2-methyl-1H-benzo[d]imidazol-6-yl)pyrimidin-2-yl)amino)pyridin-3-yl)piperidin-4-yl)(methyl)amino)methyl)pyridin-2-yl)dihydropyrimidine-2,4(1H,3H)-dione]	0.01 to 0.05	0.05 to 0.1	A (A is defined as 0% ≤ substrate protein remaining % ≤ 80%)	A (A is defined as 0% ≤ substrate protein remaining % ≤ 80%)	–
0.1 to 0.5	0.1 to 0.5	0.05 to 0.1	0.01 to 0.05	0.1 to 0.5	0.1 to 0.5	Cc1nc2c(F)cc(-c3nc(Nc4ccc(N5CCC(N6CCN(Cc7cccc(NC8CCC(=O)NC8=O)c7)CC6)CC5)cn4)ncc3F)cc2n1C(C)C (stereo not drawn) [GT-06743, 3-((3-((4-(1-(6-((5-fluoro-4-(4-fluoro-1-isopropyl-2-methyl-1H-benzo[d]imidazol-6-yl)pyrimidin-2-yl)amino)pyridin-3-yl)piperidin-4-yl)piperazin-1-yl)methyl)phenyl)amino)pip eridine-2,6-dione]	0.05 to 0.1	0.1 to 0.5	A (A is defined as 0% ≤ substrate protein remaining % ≤ 80%)	B (B is defined as substrate protein remaining % > 80%)	–
0.1 to 0.5	0.05 to 0.1	0.01 to 0.05	0.01 to 0.05	0.1 to 0.5	0.1 to 0.5	Cc1nc2c(F)cc(-c3nc(Nc4ccc(N5CCC(N6CCN(Cc7ccc(N8CCC(=O)NC8=O)cc7)CC6)CC5)cn4)ncc3F)cc2n1C(C)C [GT-06739, 1-(4-((4-(1-(6-((5-fluoro-4-(4-fluoro-1-isopropyl-2-methyl-1H-benzo[d]imidazol-6-yl)pyrimidin-2-yl)amino)pyridin-3-yl)piperidin-4-yl)piperazin-1-yl)methyl)phenyl)dihydropyrimidine-2,4(1H,3H)-dione]	0.05 to 0.1	0.05 to 0.1	A (A is defined as 0% ≤ substrate protein remaining % ≤ 80%)	B (B is defined as substrate protein remaining % > 80%)	–
0.1 to 0.5	–	0.01 to 0.05	0.01 to 0.05	0.1 to 0.5	0.1 to 0.5	Cc1nc2c(F)cc(-c3nc(Nc4ccc(N5CCC(N(C)Cc6ccc(C7CCC(=O)NC7=O)cc6)CC5)cn4)ncc3F)cc2n1C(C)C (stereo not drawn) [GT-06735, 3-(4-(((1-(6-((5-fluoro-4-(4-fluoro-1-isopropyl-2-methyl-1H-benzo[d]imidazol-6-yl)pyrimidin-2-yl)amino)pyridin-3-yl)piperidin-4-yl)(methyl)amino)methyl)phenyl)piperidine-2,6-dione]	0.05 to 0.1	0.1 to 0.5	A (A is defined as 0% ≤ substrate protein remaining % ≤ 80%)	A (A is defined as 0% ≤ substrate protein remaining % ≤ 80%)	–

The remaining lines, values behind:

Structure (SMILES)	IC50 (H1975; NCI-H1975, CCK-8, 96 hours) [µM]	IC50 (MCF7) [µM]	IC50 (MV-4-11) [µM]	IC50 (22RV1) [µM]	IC50 (CCRF-CEM) [µM]	IC50 (MM.1S) [µM]	IC50 (SR) [µM]	IC50 (Kasumi-1) [µM]	Degradation of substrate protein CDK4 (substrate protein remaining %) (CDK4)	Degradation of substrate protein CDK6 (substrate protein remaining %) (CDK6)	IC50 (H1975; NCI-H1975, 96 h) [µM]
CC(=O)c1c(C)c2cnc(Nc3ccc(N4CCC(N5CCN(Cc6ccc(C7CCC(=O)NC7=O)cc6)CC5)CC4)cn3)nc2n(C2CCCC2)c1=O (stereo not drawn) [GT-06659, 3-(4-((4-(1-(6-((6-acetyl-8-cyclopentyl-5-methyl-7-oxo-7,8-dihydropyrido[2,3-d]pyrimidin-2-yl)amino)pyridin-3-yl)piperidin-4-yl)piperazin-1-yl)methyl)phenyl)piperidine-2,6-dione]	–	0.1 to 0.5	0.1 to 0.5	0.01 to 0.05	0.1 to 0.5	–	–	0.1 to 0.5	A (A is defined as 0% ≤ substrate protein remaining % ≤ 80%)	A (A is defined as 0% ≤ substrate protein remaining % ≤ 80%)	–
Cc1nc2c(F)cc(-c3nc(Nc4ccc(CN5CCN(Cc6ccc(N7CCC(=O)NC7=O)cc6)CC5)cn4)ncc3F)cc2n1C(C)C [GT-06665, 1-(4-((4-((6-((5-fluoro-4-(4-fluoro-1-isopropyl-2-methyl-1H-benzo[d]imidazol-6-yl)pyrimidin-2-yl)amino)pyridin-3-yl)methyl)piperazin-1-yl)methyl)phenyl)dihydropyrimidine-2,4(1H,3H)-dione]	0.1 to 0.5	0.1 to 0.5	0.01 to 0.05	0.01 to 0.05	0.5 to 1	–	0.1 to 0.5	0.1 to 0.5	A (A is defined as 0% ≤ substrate protein remaining % ≤ 80%)	A (A is defined as 0% ≤ substrate protein remaining % ≤ 80%)	–
CCN1CCN(Cc2ccc(Nc3ncc(F)c(-c4cc(F)c5nc(C)n(C(C)C)c5c4)n3)nc2)CC1 [abemaciclib, reference compound]	–	1 to 5	0.05 to 0.1	0.01 to 0.05	1 to 5	1 to 5	0.5 to 1	0.5 to 1	–	–	1 to 5
Cc1nc2c(F)cc(-c3nc(Nc4ccc(CN5CCN(Cc6ccc(C7CCC(=O)NC7=O)cc6)CC5)cn4)ncc3F)cc2n1C(C)C (stereo not drawn) [GT-06664, 3-(4-((4-((6-((5-fluoro-4-(4-fluoro-1-isopropyl-2-methyl-1H-benzo[d]imidazol-6-yl)pyrimidin-2-yl)amino)pyridin-3-yl)methyl)piperazin-1-yl)methyl)phenyl)piperidine-2,6-dione]	0.5 to 1	–	0.01 to 0.05	0.05 to 0.1	0.5 to 1	–	0.1 to 0.5	0.1 to 0.5	A (A is defined as 0% ≤ substrate protein remaining % ≤ 80%)	B (B is defined as substrate protein remaining % > 80%)	–
